Like-named read-outs stand apart in the source and are kept apart here.
Experiments:
Type in all cases: cell-based
[1] = system: HT29 human colorectal carcinoma cells; assay: XTT test, number of viable cells, HT29
Method: (§1) The effect of the four compounds 497, 631, 115 and 540 on the growth profile of cancer cells which express Fer was tested. The cells that were tested were: the colon cancer cell lines HT29 and HCT 116, the breast cancer cell lines MDA-MB-231 and MCF-7, and the prostate cancer cell lines PC3 and DU145. The effect of each of the four compounds on FS11 cells, a non malignant fibroblastic cell line, was also studied.
(§2) The cells were seeded in 96 wells microplates and were left to grow untreated overnight. Each of the […] compounds was dissolved in DMSO and was then added to each well in a dose dependent manner from 0.4 to 80 μM. The concentration of DMSO in each well was 0.4% v/v. Untreated cells and cells subjected to 0.4% DMSO alone, served as controls. The number of viable cells in each well was determined 48, 72, 96 hours after compounds addition, using the XTT test (Berridge, M. V. et al, 2005).
(§3) The effect of compound E626-0342 on the growth profile of cancer cells which express Fer was tested. The compound was added to the growth media of FS11-normal primary human fibroblasts and to two colon cancer cell lines, HCT116 and HT29, which express Fer.
(§4) Various cell lines were seeded in 96 wells microplates and were left to grow untreated overnight. Compound E626-0342, dissolved in DMSO at a stock concentration of 10 mM was then added to each well in a dose dependent manner, resulting in final concentrations extending from 0.5 to 15 μM. The final concentration of DMSO in each well was 1% v/v. Untreated cells and cells subjected to 1% DMSO alone, served as controls. The number of viable cells in each well was determined 96 hours after addition of the compound, using the XTT test (Berridge, M. V. et al, 2005).

[2] = system: HCT116 human colorectal carcinoma cells; assay: XTT test, number of viable cells, HCT116
Method: as §1, §2, §3, §4

[3] = system: MDA-MB-231 breast cancer cell line; assay: XTT test, number of viable cells, MDA-MB-231; settings: Homo sapiens, concentrations tested up to 80 μM
Method: as §1, §2

[4] = system: MCF-7 breast cancer cell line; assay: XTT test, number of viable cells, MCF-7; settings: Homo sapiens, MCF7, concentrations tested up to 80 μM
Method: as §1, §2

[5] = system: FS11 human fibroblastic cells; assay: XTT test, number of viable cells, FS11 non-malignant fibroblasts; settings: for EC50: Homo sapiens, Fibroblast, XTT test, concentrations tested up to 80 μM
Method: as §1, §2, §3, §4

[6] = system: PC3 prostate cancer cell line; assay: XTT test, number of viable cells, PC3; settings: concentrations tested up to 80 μM
Method: as §1, §2

[7] = system: DU145 prostate cancer cell line; assay: XTT test, number of viable cells, DU145; settings: Homo sapiens, DU-145, concentrations tested up to 80 μM
Method: as §1, §2

murine Fer = target: T1, murine Fer (Mus musculus, UniProt P70451); assay: Fer tyrosine phosphorylation in yeast cells expressing ectopic Fer (western blot); settings: 40 μM for 48 h
T1 construct: expressed in transfected cells; host or cells: S. cerevisiae yeast cells harboring plasmid pAES-Fer
Method: To examine whether the above listed compounds affect the enzymatic activity of Fer, the protein tyrosine phosphorylation profile in yeast cells which ectopically express the murine Fer, was analyzed using the yeast system disclosed in WO2007/107991. Since the S. cerevisae yeast cells lack almost completely detectable, endogenous, tyrosine phosphorylation activity, the detected tyrosine phosphorylation signals result essentially from the kinase activity of the ectopic Fer. Furthermore, considering the negligible tyrosine-phosphorylation background in the cells, it is possible to specifically track the tyrosine phosphorylation level of Fer in the treated yeast cells.
Yeast cells expressing an ectopic Fer were treated with 40 μM of one of the compounds 497, 631, 115 and 540 for 48 h. […] The expression levels of Fer and the tyrosine phosphorylation profiles of the proteins before and after treatment with the compounds were determined using a western-blot analysis. […]
To examine whether E626-0342 affects the enzymatic activity of Fer, the protein tyrosine phosphorylation profile in yeast cells which ectopically express the murine Fer, was analyzed. Since the S. cerevisae yeast cells lack almost completely detectable, endogenous, tyrosine phosphorylation activity, the detected tyrosine phosphorylation signals result essentially from the kinase activity of the ectopic Fer. […]

[8] = HT-29, XTT test, concentrations tested up to 80 μM, read-out: EC50 on HT29
[9] = HCT-116, XTT test, concentrations tested up to 80 μM, read-out: EC50 on HCT116

T1 sequence (P70451 whole entry): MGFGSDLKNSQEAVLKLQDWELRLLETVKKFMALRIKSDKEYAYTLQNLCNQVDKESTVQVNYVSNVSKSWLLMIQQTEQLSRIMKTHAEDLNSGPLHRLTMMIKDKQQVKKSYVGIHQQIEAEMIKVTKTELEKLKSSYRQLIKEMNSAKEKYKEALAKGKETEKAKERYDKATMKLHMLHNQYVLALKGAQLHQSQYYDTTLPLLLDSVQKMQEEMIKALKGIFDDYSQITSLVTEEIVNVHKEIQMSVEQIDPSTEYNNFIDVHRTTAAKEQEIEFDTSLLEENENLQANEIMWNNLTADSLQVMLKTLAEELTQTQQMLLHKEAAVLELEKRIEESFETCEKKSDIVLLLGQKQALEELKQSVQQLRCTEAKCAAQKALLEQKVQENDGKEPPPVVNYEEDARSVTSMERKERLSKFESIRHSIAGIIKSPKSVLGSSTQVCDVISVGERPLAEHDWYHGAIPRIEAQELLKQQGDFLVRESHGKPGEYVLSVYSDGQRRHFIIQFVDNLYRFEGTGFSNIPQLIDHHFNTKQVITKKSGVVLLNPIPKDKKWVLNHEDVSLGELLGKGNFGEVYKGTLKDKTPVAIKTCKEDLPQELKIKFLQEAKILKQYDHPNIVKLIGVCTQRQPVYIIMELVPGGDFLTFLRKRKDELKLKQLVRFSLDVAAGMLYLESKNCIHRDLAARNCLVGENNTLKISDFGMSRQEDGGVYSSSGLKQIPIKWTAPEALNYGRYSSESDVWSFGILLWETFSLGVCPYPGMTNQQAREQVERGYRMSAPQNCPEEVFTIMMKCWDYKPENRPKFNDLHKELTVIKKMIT

Row | SMILES | EC50 [1, 8] [µM] | EC50 [2, 9] [µM] | EC50 [3] [µM] | EC50 [4] [µM] | EC50 [5] [µM] | IC50 ([1]; HT-29, after 96 h, read-out: IC50, reduction in number of viable cells, HT29) [µM] | IC50 ([2]; HCT-116, after 96 h, read-out: IC50, reduction in number of viable cells, HCT116) [µM] | EC50 [6] [µM] | EC50 [7] [µM] | tyrosine phosphorylation level of the Fer protein band (Fer autophosphorylation) (murine Fer) | EC50 ([1]; HT-29, 0.4% DMSO, 0.4 to 80 μM, read-out: EC50, decrease in cell viability, HT29) [µM] | EC50 ([2]; HCT-116, 0.4% DMSO, 0.4 to 80 μM, read-out: EC50, decrease in cell viability, HCT116) [µM] | effect on FS11 cells ([5]; up to a concentration of 80 μM)
1 | Cc1ccn2cc(-c3ccc(F)cc3)cc2c1 [Compound 115] | 32 | 32 | 40 | 8 | > 80 | – | – | – | – | – | – | – | –
2 | Nc1cc(-c2ccc(Cl)cc2)nn1S(=O)(=O)c1c(F)c(F)c(F)c(F)c1F [Compound 497] | 2 | 2 | 2 | 8 | 4 | 2 | 2 | 4 | 8 | significant reduction | – | – | –
3 | CC(C)c1nn2cc(-c3ccc(F)cc3)nc2s1 [Compound 631] | 30 | 24 | 32 | – | – | – | – | 32 | – | significant reduction | 40 | 24 | did not affect
